From patent US7868135B2, “Compositions of lipopeptide antibiotic derivatives and methods of use thereof” (priority 2003, dated 2011)
Starred links: 1 amine or outer side, 2 acyl side, 3 side chain; linkers in the order of their positions; H or OH if unused. Positions of bridges follow the written chain, without caps; N, C: chain ends. Non-standard residues stand in square brackets, D forms with d. Residues, ends and D or L forms follow the SMILES beside them. ξ: configuration not given here. *: point of attachment. X14 = CC(NC(=O)[C@@H](N)CNC(=O)CCN)C(N[*:1])C(=O)[*:2]; X30 = CC(NC(=O)Cc1ccc(N)cc1)C(N[*:1])C(=O)[*:2]; ξAbu(βξ-NH2) = CC(N[*:3])C(N[*:1])C(=O)[*:2]; X41 = CC(NC(=O)C1CCCCC1)C(N[*:1])C(=O)[*:2]; Lys(Me3) = C[N+](C)(C)CCCC[C@H](N)C(=O)O; Arg(Me2s) = CN=C(NC)NCCC[C@H](N)C(=O)O; Pentadecanoyl = CCCCCCCCCCCCCCC(=O)*; ξAsp(βξ-Me) = CC(C(=O)O)C(N)C(=O)O; Pip = O=C(O)[CH]1CCCCN1; ξD = NC(CC(=O)O)C(=O)O; ξPip = O=C(O)C1CCCCN1; ξV = CC(C)C(N)C(=O)O; ξP = O=C(O)C1CCCN1

System: Staphylococcus aureus (MSSA)
Conditions: 24 h
In short: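 Broth microdilution MIC per NCCLS M7-A6 with doubling serial dilutions, in cation-adjusted Mueller-Hinton broth supplemented with 0.625 mM calcium.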

Row | SMILES | MIC [µg/mL]
1 | CCCCCCCCCCCCCCC(=O)NC(CC(=O)O)C(=O)NC1C(=O)N2CCCCC2C(=O)NC(C(C)C(=O)O)C(=O)NC(CC(=O)O)C(=O)NCC(=O)NC(CC(=O)O)C(=O)NCC(=O)NC(C(C)NC(=O)[C@@H](N)CCC)C(=O)NC(C(C)C)C(=O)N2CCCC2C(=O)NC1C (stereo partly shown) [Compound 163, C15-Amphomycin-9-Nvl] | 8
2 | CCCCCCCCCCCCCCC(=O)NC(CC(=O)O)C(=O)NC1C(=O)N2CCCCC2C(=O)NC(C(C)C(=O)O)C(=O)NC(CC(=O)O)C(=O)NCC(=O)NC(CC(=O)O)C(=O)NCC(=O)NC(C(C)NC(=O)[C@@H](N)CC)C(=O)NC(C(C)C)C(=O)N2CCCC2C(=O)NC1C (stereo partly shown) [Compound 164, C15-Amphomycin-9-Abu] | 4
3 | CCCCCCCCCCCCCCC(=O)NC(CC(=O)O)C(=O)NC1C(=O)N2CCCCC2C(=O)NC(C(C)C(=O)O)C(=O)NC(CC(=O)O)C(=O)NCC(=O)NC(CC(=O)O)C(=O)NCC(=O)NC(C(C)NC(=O)[C@@H](N)CCCNC(=NC)NC)C(=O)NC(C(C)C)C(=O)N2CCCC2C(=O)NC1C (stereo partly drawn) [Compound 166, C15-Amphomycin-9-(ME)2Arg] (Pentadecanoyl-[ξD][ξAbu(βξ-NH2)][ξPip][ξAsp(βξ-Me)][ξD]G[ξD]G[ξAbu(βξ-NH2)](Arg(Me2s))[ξV][ξP]; lactam 2-C) | 32
4 | CCCCCCCCCCCCCCC(=O)NC(CC(=O)O)C(=O)NC1C(=O)N2CCCCC2C(=O)NC(C(C)C(=O)O)C(=O)NC(CC(=O)O)C(=O)NCC(=O)NC(CC(=O)O)C(=O)NCC(=O)NC(C(C)NC(=O)[C@@H]2C[C@@H](O)CN2)C(=O)NC(C(C)C)C(=O)N2CCCC2C(=O)NC1C (stereo partly shown) [Compound 167, C15-Amphomycin-9-Hyp] | 4 to 8
5 | CCCCCCCCCCCCCCC(=O)NC(CC(=O)O)C(=O)NC1C(=O)N2CCCCC2C(=O)NC(C(C)C(=O)O)C(=O)NC(CC(=O)O)C(=O)NCC(=O)NC(CC(=O)O)C(=O)NCC(=O)NC(C(C)NC(=O)Cc2ccc(N)cc2)C(=O)NC(C(C)C)C(=O)N2CCCC2C(=O)NC1C (stereo not drawn) [Compound 168, C15-Amphomycin-9-(p-Apa)] (Pentadecanoyl-D[ξAbu(βξ-NH2)][Pip][ξAsp(βξ-Me)]DGDG[X30]VP; lactam 2-C; configuration not given here) | 32 to 64
6 | CCCCCCCCCCCCCCC(=O)NC(CC(=O)O)C(=O)NC1C(=O)N2CCCCC2C(=O)NC(C(C)C(=O)O)C(=O)NC(CC(=O)O)C(=O)NCC(=O)NC(CC(=O)O)C(=O)NCC(=O)NC(C(C)NC(=O)[C@@H](N)C(C)C)C(=O)NC(C(C)C)C(=O)N2CCCC2C(=O)NC1C (stereo partly shown) [Compound 169, C15-Amphomycin-9-Val] | 4
7 | CCCCCCCCCCCCCCC(=O)NC(CC(=O)O)C(=O)NC1C(=O)N2CCCCC2C(=O)NC(C(C)C(=O)O)C(=O)NC(CC(=O)O)C(=O)NCC(=O)NC(CC(=O)O)C(=O)NCC(=O)NC(C(C)NC(=O)[C@@H](N)CCCC[N+](C)(C)C)C(=O)NC(C(C)C)C(=O)N2CCCC2C(=O)NC1C (stereo partly drawn) [Compound 170, C15-Amphomycin-9-(ME)3Lys] (Pentadecanoyl-[ξD][ξAbu(βξ-NH2)][ξPip][ξAsp(βξ-Me)][ξD]G[ξD]G[ξAbu(βξ-NH2)](Lys(Me3))[ξV][ξP]; lactam 2-C) | 2
8 | CCCCCCCCCCCCCCC(=O)NC(CC(=O)O)C(=O)NC1C(=O)N2CCCCC2C(=O)NC(C(C)C(=O)O)C(=O)NC(CC(=O)O)C(=O)NCC(=O)NC(CC(=O)O)C(=O)NCC(=O)NC(C(C)NC(=O)CNC(=O)[C@H](CCCCN)NC(=O)[C@@H](N)CCCCN)C(=O)NC(C(C)C)C(=O)N2CCCC2C(=O)NC1C (stereo partly drawn) [Compound 191, C15-Amphomycin-9-Gly-Lys-Lys] | 8
9 | CCCCCCCCCCCCCCC(=O)NC(CC(=O)O)C(=O)NC1C(=O)N2CCCCC2C(=O)NC(C(C)C(=O)O)C(=O)NC(CC(=O)O)C(=O)NCC(=O)NC(CC(=O)O)C(=O)NCC(=O)NC(C(C)NC(=O)[C@H](CCCCN)NC(=O)[C@@H](N)CCCCN)C(=O)NC(C(C)C)C(=O)N2CCCC2C(=O)NC1C (stereo partly shown) [Compound 194, C15-Amphomycin-9-Lys-Lys] | 2
10 | CCCCCCCCCCCCCCC(=O)NC(CC(=O)O)C(=O)NC1C(=O)N2CCCCC2C(=O)NC(C(C)C(=O)O)C(=O)NC(CC(=O)O)C(=O)NCC(=O)NC(CC(=O)O)C(=O)NCC(=O)NC(C(C)NC(=O)[C@H](CCCCN)NC(=O)[C@H](CCCCN)NC(=O)[C@@H](N)CCCCN)C(=O)NC(C(C)C)C(=O)N2CCCC2C(=O)NC1C (stereo partly drawn) [Compound 195, C15-Amphomycin-9-Lys-Lys-Lys] | 4
11 | CCCCCCCCCCCCCCC(=O)NC(CC(=O)O)C(=O)NC1C(=O)N2CCCCC2C(=O)NC(C(C)C(=O)O)C(=O)NC(CC(=O)O)C(=O)NCC(=O)NC(CC(=O)O)C(=O)NCC(=O)NC(C(C)NC(=O)C2CCCCC2)C(=O)NC(C(C)C)C(=O)N2CCCC2C(=O)NC1C (stereo not drawn) [Compound 206, C15-Amphomycin-9-cHexyl] (Pentadecanoyl-D[ξAbu(βξ-NH2)][Pip][ξAsp(βξ-Me)]DGDG[X41]VP; lactam 2-C; configuration not given here) | 8

Continued, values first:

Row | MIC [µg/mL] | SMILES
12 | 4 | CCCCCCCCCCCCCCC(=O)NC(CC(=O)O)C(=O)NC1C(=O)N2CCCCC2C(=O)NC(C(C)C(=O)O)C(=O)NC(CC(=O)O)C(=O)NCC(=O)NC(CC(=O)O)C(=O)NCC(=O)NC(C(C)NC(=O)[C@@H](N)CCCNC(N)=O)C(=O)NC(C(C)C)C(=O)N2CCCC2C(=O)NC1C (stereo partly shown) [Compound 165, C15-Amphomycin-9-Cit]
13 | 8 | CCCCCCCCCCCCCCC(=O)NC(CC(=O)O)C(=O)NC1C(=O)N2CCCCC2C(=O)NC(C(C)C(=O)O)C(=O)NC(CC(=O)O)C(=O)NCC(=O)NC(CC(=O)O)C(=O)NCC(=O)NC(C(C)NC(=O)[C@@H](N)CCCC)C(=O)NC(C(C)C)C(=O)N2CCCC2C(=O)NC1C (stereo partly shown) [Compound 171, C15-Amphomycin-9-Nle]
14 | 1 | CCCCCCCCCCCCCCC(=O)NC(CC(=O)O)C(=O)NC1C(=O)N2CCCCC2C(=O)NC(C(C)C(=O)O)C(=O)NC(CC(=O)O)C(=O)NCC(=O)NC(CC(=O)O)C(=O)NCC(=O)NC(C(C)NC(=O)CCNC(=O)CCCCN)C(=O)NC(C(C)C)C(=O)N2CCCC2C(=O)NC1C (stereo not drawn) [Compound 173, C15-Amphomycin-9-(β-Ala)-(5-Ava)]
15 | 2 | CCCCCCCCCCCCCCC(=O)NC(CC(=O)O)C(=O)NC1C(=O)N2CCCCC2C(=O)NC(C(C)C(=O)O)C(=O)NC(CC(=O)O)C(=O)NCC(=O)NC(CC(=O)O)C(=O)NCC(=O)NC(C(C)NC(=O)CCNC(=O)[C@@H](N)C(C)C)C(=O)NC(C(C)C)C(=O)N2CCCC2C(=O)NC1C (stereo partly drawn) [Compound 174, C15-Amphomycin-9-(β-Ala)-Val]
16 | 4 | CCCCCCCCCCCCCCC(=O)NC(CC(=O)O)C(=O)NC1C(=O)N2CCCCC2C(=O)NC(C(C)C(=O)O)C(=O)NC(CC(=O)O)C(=O)NCC(=O)NC(CC(=O)O)C(=O)NCC(=O)NC(C(C)NC(=O)CCCCNC(=O)CCN)C(=O)NC(C(C)C)C(=O)N2CCCC2C(=O)NC1C (stereo not drawn) [Compound 176, C15-Amphomycin-9-(5-Ava)-(β-Ala)]
17 | 1 | CCCCCCCCCCCCCCC(=O)NC(CC(=O)O)C(=O)NC1C(=O)N2CCCCC2C(=O)NC(C(C)C(=O)O)C(=O)NC(CC(=O)O)C(=O)NCC(=O)NC(CC(=O)O)C(=O)NCC(=O)NC(C(C)NC(=O)CNC(=O)[C@H](CCCCN)NC(=O)CN)C(=O)NC(C(C)C)C(=O)N2CCCC2C(=O)NC1C (stereo partly drawn) [Compound 190, C15-Amphomycin-9-Gly-Lys-Gly]
18 | 0.5 to 1 | CCCCCCCCCCCCCCC(=O)NC(CC(=O)O)C(=O)NC1C(=O)N2CCCCC2C(=O)NC(C(C)C(=O)O)C(=O)NC(CC(=O)O)C(=O)NCC(=O)NC(CC(=O)O)C(=O)NCC(=O)NC(C(C)NC(=O)CNC(=O)CNC(=O)[C@@H](N)CCCCN)C(=O)NC(C(C)C)C(=O)N2CCCC2C(=O)NC1C (stereo partly drawn) [Compound 192, C15-Amphomycin-9-Gly-Gly-Lys]
19 | 4 to 8 | CCCCCCCCCCCCCCC(=O)NC(CC(=O)O)C(=O)NC1C(=O)N2CCCCC2C(=O)NC(C(C)C(=O)O)C(=O)NC(CC(=O)O)C(=O)NCC(=O)NC(CC(=O)O)C(=O)NCC(=O)NC(C(C)NC(=O)[C@H](CCCCN)NC(=O)CN)C(=O)NC(C(C)C)C(=O)N2CCCC2C(=O)NC1C (stereo partly shown) [Compound 193, C15-Amphomycin-9-Lys-Gly]
20 | 0.25 to 0.5 | CCCCCCCCCCCCCCC(=O)NC(CC(=O)O)C(=O)NC1C(=O)N2CCCCC2C(=O)NC(C(C)C(=O)O)C(=O)NC(CC(=O)O)C(=O)NCC(=O)NC(CC(=O)O)C(=O)NCC(=O)NC(C(C)NC(=O)CNC(=O)CCCCCN)C(=O)NC(C(C)C)C(=O)N2CCCC2C(=O)NC1C (stereo not shown) [Compound 197, C15-Amphomycin-9-Gly-Ahx]
21 | 4 | CCCCCCCCCCCCCCC(=O)NC(CC(=O)O)C(=O)NC1C(=O)N2CCCCC2C(=O)NC(C(C)C(=O)O)C(=O)NC(CC(=O)O)C(=O)NCC(=O)NC(CC(=O)O)C(=O)NCC(=O)NC(C(C)NC(=O)CN(C)C(=O)CCCCCN)C(=O)NC(C(C)C)C(=O)N2CCCC2C(=O)NC1C (stereo not shown) [Compound 198, C15-Amphomycin-9-Sar-Ahx]
22 | 1 | CCCCCCCCCCCCCCC(=O)NC(CC(=O)O)C(=O)NC1C(=O)N2CCCCC2C(=O)NC(C(C)C(=O)O)C(=O)NC(CC(=O)O)C(=O)NCC(=O)NC(CC(=O)O)C(=O)NCC(=O)NC(C(C)NC(=O)[C@@H](N)CNC(=O)CCN)C(=O)NC(C(C)C)C(=O)N2CCCC2C(=O)NC1C (stereo partly drawn) [Compound 200, C15-Amphomycin-9-Dap-(β-N-(β-Ala))] (Pentadecanoyl-[ξD][ξAbu(βξ-NH2)][ξPip][ξAsp(βξ-Me)][ξD]G[ξD]G[X14][ξV][ξP]; lactam 2-C)
23 | 32 | CCCCCCCCCCCCCCC(=O)NC(CC(=O)O)C(=O)NC1C(=O)N2CCCCC2C(=O)NC(C(C)C(=O)O)C(=O)NC(CC(=O)O)C(=O)NCC(=O)NC(CC(=O)O)C(=O)NCC(=O)NC(C(C)NC(=O)CCCCC)C(=O)NC(C(C)C)C(=O)N2CCCC2C(=O)NC1C (stereo not shown) [Compound 201, C15-Amphomycin-9-C6]
24 | 16 | CCCCCCCCCCCCCCC(=O)NC(CC(=O)O)C(=O)NC1C(=O)N2CCCCC2C(=O)NC(C(C)C(=O)O)C(=O)NC(CC(=O)O)C(=O)NCC(=O)NC(CC(=O)O)C(=O)NCC(=O)NC(C(C)NC(=O)CCCCCCC)C(=O)NC(C(C)C)C(=O)N2CCCC2C(=O)NC1C (stereo not shown) [Compound 205, C15-Amphomycin-9-C8]
25 | 16 | CCCCCCCCCCCCCCC(=O)NC(CC(=O)O)C(=O)NC1C(=O)N2CCCCC2C(=O)NC(C(C)C(=O)O)C(=O)NC(CC(=O)O)C(=O)NCC(=O)NC(CC(=O)O)C(=O)NCC(=O)NC(C(C)NC(=O)CCC)C(=O)NC(C(C)C)C(=O)N2CCCC2C(=O)NC1C (stereo not shown) [Compound 207, C15-Amphomycin-9-C4]
